# Patent US9456973B2, “Methionyl-methionine stereoisomers and use thereof in cosmetics” (EVONIK DEGUSSA GMBH, priority 2013, dated 2016)
# Experiments:
# Set-up in all cases: species or system human
# [1] = Repair of bleached hair: tensile elongation forces by Dia-stron Tensile Tester MTT 670
# Experimental: A tress section of human Euro-Natural hair, remis, double-drawn with a length of 23 cm and a width of 2.0 cm with a weight of 2.0 g and dark-brown color was wetted under a tap of running water over the course of 10 seconds. 8 g of a 30% strength aqueous hydrogen peroxide solution were mixed with 4 g of Basler Blond Claire bleaching powder, 2 mL of a 25% strength aqueous ammonia solution were added, and combined again and 8 g of the resulting paste were massaged into the tress section with the help of a comb and the protected hands. After a contact time of 30 minutes at room temperature, the tress section was washed for 2 minutes under running tap water at ca. 35° C. and then dried by means of an electronic hair dryer for 3 minutes while combing at the same time. The entire procedure was repeated once starting from the wetting of the tress section.
# (§1) Afterwards, per treatment method 40 hairs were removed from the tress section and in each case the middle section of a hair with a length of 3 cm was crimped between two brass sleeves with plastic coating on the inside. The average area of each individual hair was measured using a Dia-stron FDAS760 fibre dimensional system and UvWin PC application software. The hair samples were then transferred to the sample cassette of a Dia-stron Tensile Tester MTT 670 and admixed in each case with demineralized water adjusted to pH 7 using citric acid. A measurement of the individual hair strands with the Single Fiber Method (Extension 20%, Rate 20 mm/min, Gauge Force 2, Maximum Force 200, Break Threshold 5, Sample Size 30 mm) was started. The hair samples were then removed from the sample cassette and covered with demineralized water in a plastic bowl.
# (§2) For the treatment with hair conditioner, the water was removed after 30 minutes and the hair samples were covered with hair conditioner. After a contact time of 30 minutes, each individual hair sample was washed under a stream of running water at ca. 35° C. for 6 seconds. The hair samples were dried overnight at 22° C. and 50% relative atmospheric humidity.
# For the treatment with shampoo, the water was removed after 30 minutes and the hair samples were covered with shampoo. After a contact time of 5 minutes, each individual hair sample was washed under a stream of running water at ca. 35° C. for 6 seconds. The hair samples were briefly dried by means of an electronic hair dryer and the shampoo treatment was repeated four times.
# After the particular treatment, the measurement of the individual hair samples starting with the transfer to the sample cassette of the Dia-stron Tensile Tester MTT 670 was repeated.
# The evaluation of the data takes place by reference to the parameters modulus of elasticity (E modulus), Load and/or Work. If a hair is pulled, the elongation is initially proportional to the applied force (Hooke's range). The modulus of elasticity describes the applied force per elongation (in Newton/mm^2) in the Hooke's range and therefore represents the tensile strength of a hair fibre. As soon as the hair has been elongated to a length of approximately 2%, it further deforms very rapidly up to ca. 25-30% of its original length, where the increase in the force required for this is minimal (Yield range). The parameter Load corresponds to the force (in Newtons) which is required to elongate the hair up to 15% and the parameter Work indicates the work required to elongate the hair from 0-15% (in Joules).
# [2] = Hair fatigue breakage of bleached hair, Dia-stron Automatic Cyclic Tester (CYC800), Weibull analysis; conditions: simple hair conditioner (Table 3), 2.0%; Constant Stress method; vehicle 14 190 cycles; FIG. 8
# Experimental: A tress section of human Euro-Natural hair, remis, double-drawn with a length of 23 cm and a width of 2.0 cm with a weight of 2.0 g and dark-brown color was wetted under a tap of running water over the course of 10 seconds. 8 g of a 30% strength aqueous hydrogen peroxide solution were mixed with 4 g of Basler Blond Claire bleaching powder, 2 mL of a 25% strength aqueous ammonia solution were added, and combined again and 8 g of the resulting paste were massaged into the tress section with the help of a comb and the protected hands. […]
# Afterwards, per treatment method 40 hairs were removed from the tress section and in each case the middle section of a hair with a length of 3 cm was crimped between two brass sleeves with plastic coating on the inside. The average area of each individual hair was measured using a Dia-stron FDAS760 fibre dimensional system and UvWin PC application software. […]
# In order to measure the hair fatigue breakage, the hair samples were transferred to the sample cassette of a Dia-stron Automatic Cyclic Tester (CYC800) and climatized at 22° C. and 50-55% rel. atmospheric humidity. […] The characteristic life span a of a hair fibre is calculated by means of Weibull analysis. […]
# [3] = Repair of alkaline smoothed hair: tensile elongation forces by Tensile Tester; conditions: simple hair conditioner (Table 8); 0.5% DD/LL 1:1, 0.5% L-methionine or 2.0% wheat protein (25% active); vehicle 0.43 mN; FIG. 9
# Experimental: as §1
# as §2, with “humidity. […]” for “humidity.”
# (§3) Afterwards, 40 hairs were removed from the tress section and measured as described in Example 1. […]
# [4] = Repair of reductively smoothed hair: tensile elongation forces by Tensile Tester; conditions: simple hair conditioner (Table 9); 0.5% DD/LL 1:1 or 2.0% wheat protein (25% active); FIG. 10
# Experimental: as §1
# as §2, with “humidity. […]” for “humidity.”
# as §3
# [5] = Protection of hair against thermal stress (smoothing iron): hair fatigue breakage, Automatic Cyclic Tester; conditions: FIG. 11
# Experimental: A tress section of human Euro-Natural hair, remis, double-drawn with a length of 23 cm and a width of 2.0 cm with a weight of 2.0 g and dark-brown color was wetted under a tap of running water over the course of 10 seconds. Then, 2 mL of shampoo (28.6% Texapon NSO in dist. water) were massaged into the hair for 30 seconds, washed out for a further 30 seconds under running tap water at ca. 35° C., and the hair tress was squeezed between two fingers and combed six times. The hair tress was dipped for 1 minute in 300 mL of active ingredient solution (active ingredient, demin. water, lactic acid, pH 5.5), squeezed between two fingers and rinsed for 30 seconds under running tap water at ca. 35° C. and combed. […]
# Afterwards, 50 hairs were removed from the tress section and in each case the middle section of a hair with a length of 3 cm was crimped between two brass sleeves with plastic coating on the inside. The average area of each individual hair was measured using a Dia-stron FDAS760 fibre dimensional system and UvWin PC application software.
# The hair samples were then transferred to the sample cassette of a Dia-stron Automatic Cyclic Tester (CYC800) and climatized at 22° C. and 50-55% rel. atmospheric humidity. […] The probability of survival and the characteristic life span a of a hair fibre were calculated by means of Weibull analysis.
# [6] = Protection of hair against thermal stress (smoothing iron): denaturation temperature by differential scanning calorimetry; conditions: preventative treatment with active ingredient solution pH 5.5; vehicle 137.9° C.; FIG. 12
# Experimental: A tress section of human Euro-Natural hair, remis, double-drawn with a length of 23 cm and a width of 2.0 cm with a weight of 2.0 g and dark-brown color was wetted under a tap of running water over the course of 10 seconds. Then, 2 mL of shampoo (28.6% Texapon NSO in dist. water) were massaged into the hair for 30 seconds, washed out for a further 30 seconds under running tap water at ca. 35° C., and the hair tress was squeezed between two fingers and combed six times. The hair tress was dipped for 1 minute in 300 mL of active ingredient solution (active ingredient, demin. water, lactic acid, pH 5.5), squeezed between two fingers and rinsed for 30 seconds under running tap water at ca. 35° C. and combed. The hair was dried using an electronic hair dryer for 3 minutes with simultaneous combing and then stored overnight in a climatically controlled chamber (37° C., 50% rel. atmospheric humidity).
# The tress section was drawn four times in each case for 30 seconds through a smoothing iron (˜210° C.), which was pressed onto the tress by means of a 630 g weight. This treatment was repeated a total of five times from the wetting of the hair and shampoo treatment (in total 20 draws through the smoothing iron). […]
Compound,"improvement of Load at 15% elongation (Load 15%) ([1]; expanded hair conditioner (Table 4), 1.0% DD/LL/LD/DL 35:35:65:65 or 4.0% wheat protein (25% active), vehicle 1.28 mN, FIG. 5) [mN]","improvement of Work up to 15% elongation (Work 15%) ([1]; expanded hair conditioner (Table 4), 1.0% DD/LL/LD/DL 35:35:65:65 or 4.0% wheat protein (25% active), vehicle 3.51 μJ, FIG. 6) [µJ]","improvement of Load at 15% elongation (Load 15%) ([1]; shampoo (Table 5), 1.00% DD/LL/LD/DL 35:35:65:65, contact 5 minutes, five treatments, vehicle 0.46 mN, FIG. 7) [mN]","improvement of Work up to 15% elongation (Work 15%) ([1]; shampoo (Table 5), 1.00% DD/LL/LD/DL 35:35:65:65, contact 5 minutes, five treatments, vehicle 2.46 μJ) [µJ]","improvement of Load at 15% elongation (Load 15%) ([1]; simple hair conditioner (Table 3), 2.0% active, DD/LL/LD/DL = 1:1:1:1, contact 30 minutes, vehicle 2.65 mN, FIG. 3) [mN]","improvement of Work up to 15% elongation (Work 15%) ([1]; simple hair conditioner (Table 3), 2.0% active, DD/LL/LD/DL = 1:1:1:1, contact 30 minutes, vehicle 11.0 μJ, FIG. 4) [µJ]",characteristic life span α: number of cycles in which 63.2% of all hair fibres tear [2],improvement of Load at 15% elongation (Load 15%) [3] [mN],improvement of Load at 15% elongation (Load 15%) relative to vehicle [4] [mN],"number of cycles at which 20% of the hair remain intact ([5]; preventative treatment with active ingredient solution pH 5.5, DD/LL weight ratio 1:1, vehicle 5500)","number of cycles at which 10% of the hair did not tear ([5]; preventative treatment with active ingredient solution pH 5.5, vehicle 8000)",hair denaturation temperature (TD) [6] [°C],"repair effect (Load 15%, Work 15%) compared with vehicle hair conditioner, in words ([1]; simple hair conditioner (Table 3), 2.0% raw material, FIGS. 3 and 4)"
CSCCC(N)C(=O)NC(CCSC)C(=O)O (racemic) [DD/LL/LD/DL-methionyl-methionine],4.85,18.2,1.33,2.58,4.14,19.4,33 980 cycles,–,–,–,–,–,–
CSCCC(N)C(=O)NC(CCSC)C(=O)O (centres unmarked) [DD/LL-methionyl-methionine],–,–,–,–,–,–,–,3.76,0.96,10 000 cycles,22 000 cycles,139.9,–
CSCC[C@H](N)C(=O)O [L-methionine],–,–,–,–,–,–,–,2.73,–,–,–,–,could be further increased neither
